Experiments:
heart transplantation = settings: murine heart transplantation; cited from earlier work
kidney transplantation = settings: primate kidney transplantation; cited from earlier work
IFN-γ production = test: IL-2-Induced IFN-γ Production in the Mouse; assay type: in vivo; settings: oral dose at 30 mg/kg, BALB/c mice, serum IFN-γ
Protocol: IL-2-Induced IFN-γ Production in the Mouse
Administration of IL-2 leads to an increase in serum IFN-γ in the mouse due to NK secretion of the cytokine (Thornton S, Kuhn K A, Finkelman F D and Hirsch R. NK cells secrete high levels of IFN-γ in response to in vivo administration of IL-2. Eur J Immunol 2001 31:3355-3360). The experiment is carried out essentially according to the protocol in Thornton et al. and the test compounds are administered in order to determine the level of inhibition attained. In summary, female BALB/c mice are fasted for 12-18 hours before a study but have free access to water at all times. Test compounds are administered by gavage one hour before intraperitoneal injection of IL-2 and capture antibody. At termination of the studies, the mice are sacrificed by carbon dioxide inhalation, terminal blood samples are collected by cardiac puncture and serum is generated. Serum is stored frozen until assayed for IFN-γ, as described by the kit manufacturer (BD Pharmingen™, San Diego, Calif.).

Jak3 = target: T1, Jak3 (Homo sapiens, UniProt P52333); test: Jak3 Kinase Assay (HTRF, GST-Jak3 catalytic domain); assay type: biochemical; settings: 1 μM ATP, 60-min incubation, read-out: Jak 3 (Converted)
T1 construct: catalytic domain of Jak3 (508aa to 1124aa); made in house; host or cells: Sf9 insect cells (baculovirus, pFastBac 1)
T1 sequence (P52333 508-1124): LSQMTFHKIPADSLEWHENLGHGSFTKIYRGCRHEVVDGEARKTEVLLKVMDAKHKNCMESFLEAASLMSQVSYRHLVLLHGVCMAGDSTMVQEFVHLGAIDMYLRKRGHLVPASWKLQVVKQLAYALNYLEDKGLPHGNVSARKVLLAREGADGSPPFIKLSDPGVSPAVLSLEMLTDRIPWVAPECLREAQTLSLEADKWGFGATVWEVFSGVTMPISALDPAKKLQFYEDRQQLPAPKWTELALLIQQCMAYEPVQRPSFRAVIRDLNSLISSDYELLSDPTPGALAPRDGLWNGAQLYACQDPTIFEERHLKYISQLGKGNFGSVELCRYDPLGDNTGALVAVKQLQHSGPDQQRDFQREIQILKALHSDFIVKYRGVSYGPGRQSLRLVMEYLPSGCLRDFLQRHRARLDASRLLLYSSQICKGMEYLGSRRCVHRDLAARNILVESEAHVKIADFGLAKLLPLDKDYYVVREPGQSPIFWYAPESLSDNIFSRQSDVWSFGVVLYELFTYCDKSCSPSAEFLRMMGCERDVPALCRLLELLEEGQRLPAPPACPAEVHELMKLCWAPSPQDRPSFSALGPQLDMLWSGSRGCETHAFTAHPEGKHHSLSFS
Protocol: Human Jak3 cDNA was amplified by PCR. A fragment encoding the catalytic domain of Jak3 (508aa to 1124aa) was ligated with GST at 5′ end. This fused GST-Jak3 DNA fragment was cloned into the EcoRI site of the donor plasmid pFastBac 1 (Life Technologies #10359-016). The transformation, transposition, and transfection of insect cells (Sf9) were performed according to the manufacture's instructions. The cell lysate containing recombinant GST-Jak3 was used in the kinase assay. Anti-GST antibody (10 μg/ml, Sigma #G1417) was coated onto a 384-well plate at 4° C. overnight. Cell lysate containing GST-Jak3 (1:100 dilution) was added to the anti-GST coated plates, and GST-Jak3 was captured by immobilized anti-GST antibody. Testing compounds and substrate mix (50 mM HEPES, pH 7, 0.5 mM Na3VO4, 25 mM MgCl2, 1 mM DTT, 0.005% BSA, 1 μM ATP, and 4.5 μg/ml biotinyl poly-Glu, Ala, Tyr) were added to the plate to initiate the reaction. After a 60-min incubation, the reaction was stopped by 4 mM EDTA, and phosphorylation of biotinyl poly-Glu, Ala, Tyr was detected using 17 μg/ml Cy5-streptavidin (Amersham, #PA92005) and 2.7 μg/ml Europium-conjugated anti-phosphotyrosine antibody (PerkinElmer #AD0069) using homogeneous time-resolved fluorescence (HTRF) technology.

[1] = system: spontaneous autoimmune diabetes; settings: NOD mouse; cited from earlier work
GVHD = settings: in vivo; cited from earlier work

Row | IC50 (Jak3) [nM] | SMILES | inhibit IFN-γ production (IFN-γ production) [%] | other results
1 |  | C[C@@H]1CCN(C(=O)CC#N)C[C@@H]1N(C)c1ncnc2[nH]ccc12 [CP-690,550] |  | animal survival (heart transplantation): prolong animal survival; animal survival (kidney transplantation): prolong animal survival
2 | < 100 | N#Cc1ccc2ncn(-c3ncc4nc(-c5cncnc5)n(C5CCOc6c(F)ccc(F)c65)c4n3)c2c1 (centres unmarked) [Example 6] | 93 | 
3 | < 100 | N#Cc1ccc2ncn(-c3ncc4nc(-c5cncnc5)n([C@@H]5CCOc6c(F)cccc65)c4n3)c2c1 [Example 13, 3-(9-((R)-8-fluorochroman-4-yl)-8-(pyrimidin-5-yl)-9H-purin-2-yl)-3H-benzo[d]imidazole-5-carbonitrile] | 76 | 
4 |  | COc1cc2ncnc(Nc3ccc(O)cc3)c2cc1OC [WHI-P131] |  | spontaneous autoimmune diabetes development [1]: prevent spontaneous autoimmune diabetes development; severity of GVHD (GVHD): attenuate the severity of GVHD

— US7915268B2, “8-substituted 2-(benzimidazolyl)purine derivatives for immunosuppression” (Wyeth LLC, priority 2006, dated 2011)
